Measured values from patent US20200360352A1, “USE OF RIFAMYCIN-NITROIMIDAZOLE COUPLING MOLECULE” (priority 2019, published 2020).
Converted amounts (≈) assume the structure as drawn. Like-named read-outs stand apart in the source and are kept apart here. Values belong to the compound of their own block, whether it stands above or below them.

Legend:
Assay type in all cases: cell-based
Mycobacterium avium [1] = assay: MIC, micro broth dilution with resazurin readout; details: read-out: Minimum Inhibitory Concentration (MIC)
Mycobacterium abscessus [2] = assay: MIC, micro broth dilution with resazurin readout; details: Mycobacteroides abscessus, read-out: Minimum Inhibitory Concentration (MIC)
Mycobacterium kansasii [3] = assay: MIC, micro broth dilution with resazurin readout; details: read-out: Minimum Inhibitory Concentration (MIC)
Mycobacterium avium [4] = assay: MBC, plating of MIC wells and CFU count; details: read-out: Minimum Bactericidal Concentration (MBC)
Mycobacterium abscessus [5] = assay: MBC, plating of MIC wells and CFU count; details: Mycobacteroides abscessus, read-out: Minimum Bactericidal Concentration (MBC)
Mycobacterium kansasii [6] = assay: MBC, plating of MIC wells and CFU count; details: read-out: Minimum Bactericidal Concentration (MBC)
[7] = test system: Mycobacterium intracellulare; assay: MIC, micro broth dilution with resazurin readout; details: MH Culture Medium, read-out: Minimum Inhibitory Concentration (MIC)
[8] = test system: Mycobacterium massiliense; assay: MIC, micro broth dilution with resazurin readout; details: Mycobacteroides abscessus, MH Culture Medium, read-out: Minimum Inhibitory Concentration (MIC)
Mycobacterium fortuitum = assay: MIC, micro broth dilution with resazurin readout; details: Mycolicibacterium fortuitum, MH Culture Medium, read-out: Minimum Inhibitory Concentration (MIC)
Mycodacterium chelonei = assay: MIC, micro broth dilution with resazurin readout; details: MH Culture Medium; Chelonei (standard strain); read-out: Minimum Inhibitory Concentration (MIC)
[9] = 7H9 Broth, Mycobacterium avium Rough
[10] = 7H9 Broth, Mycobacterium avium Smooth
[11] = MH Broth, Mycobacterium avium Rough
[12] = MH Broth, Mycobacterium avium Smooth

MIC (Mycobacterium avium [1]; [9]): > 64 µg/mL
MIC (Mycobacterium avium [1]; [10]): 2 µg/mL (≈ 3.42 µM)
MIC (Mycobacterium avium [1]; [11]): 2 µg/mL (≈ 3.42 µM)
MIC (Mycobacterium avium [1]; [12]): 2 µg/mL (≈ 3.42 µM)
MIC (Mycobacterium abscessus [2]; 7H9 Broth): 32 µg/mL (≈ 54.6 µM)
MIC (Mycobacterium abscessus [2]; MH Broth): 16 µg/mL (≈ 27.3 µM)
MIC (Mycobacterium kansasii [3]; 7H9 Broth): 16 µg/mL (≈ 27.3 µM)
MIC (Mycobacterium kansasii [3]; MH Broth): 1 µg/mL (≈ 1.71 µM)
SMILES: NCC[C@H](O)C(=O)N[C@@H]1C[C@H](N)[C@@H](O[C@H]2O[C@H](CN)[C@@H](O)[C@H](O)[C@H]2O)[C@H](O)[C@H]1O[C@H]1O[C@H](CO)[C@@H](O)[C@H](N)[C@H]1O [Amikacin]
MBC (Mycobacterium avium [4]; [9]): > 64 µg/mL
MBC (Mycobacterium avium [4]; [10]): > 64 µg/mL
MBC (Mycobacterium avium [4]; [11]): > 64 µg/mL
MBC (Mycobacterium avium [4]; [12]): > 64 µg/mL
MBC (Mycobacterium abscessus [5]; 7H9 Broth): > 64 µg/mL
MBC (Mycobacterium abscessus [5]; MH Broth): > 64 µg/mL
MBC (Mycobacterium kansasii [6]; 7H9 Broth): 64 µg/mL (≈ 109 µM)
MBC (Mycobacterium kansasii [6]; MH Broth): > 64 µg/mL

SMILES: O=C(O)c1cn(C2CC2)c2cc(N3CCNCC3)c(F)cc2c1=O [Ciprofloxacin]
MIC (Mycobacterium avium [1]; [10]): > 64 µg/mL
MIC (Mycobacterium avium [1]; [12]): > 64 µg/mL
MIC (Mycobacterium abscessus [2]; 7H9 Broth): 16 µg/mL (≈ 48.3 µM)
MIC (Mycobacterium abscessus [2]; MH Broth): > 64 µg/mL
MIC (Mycobacterium kansasii [3]; 7H9 Broth): > 64 µg/mL
MIC (Mycobacterium kansasii [3]; MH Broth): > 64 µg/mL
MBC (Mycobacterium avium [4]; [10]): > 64 µg/mL
MBC (Mycobacterium avium [4]; [12]): > 64 µg/mL
MBC (Mycobacterium abscessus [5]; 7H9 Broth): > 64 µg/mL
MBC (Mycobacterium abscessus [5]; MH Broth): > 64 µg/mL
MBC (Mycobacterium kansasii [6]; 7H9 Broth): > 64 µg/mL
MBC (Mycobacterium kansasii [6]; MH Broth): > 64 µg/mL

MIC (Mycobacterium avium [1]; [9]): > 64 µg/mL
MIC (Mycobacterium avium [1]; [10]): 32 µg/mL (≈ 42.8 µM)
MIC (Mycobacterium avium [1]; [11]): > 64 µg/mL
MIC (Mycobacterium avium [1]; [12]): > 64 µg/mL
MIC (Mycobacterium avium [1]; MH Culture Medium, Avium (standard strain)): 0.0625 µg/mL (≈ 0.0836 µM)
MIC (Mycobacterium avium [1]; MH Culture Medium, clinically isolated strain Avium (S31)): 0.125 µg/mL (≈ 0.167 µM)
MIC (Mycobacterium avium [1]; MH Culture Medium, clinically isolated strain Avium (S123)): 0.5 µg/mL (≈ 0.668 µM)
MIC (Mycobacterium avium [1]; MH Culture Medium, clinically isolated strain Avium (S559)): 0.25 µg/mL (≈ 0.334 µM)
MIC (Mycobacterium avium [1]; MH Culture Medium, clinically isolated strain Avium (S568)): 4 µg/mL (≈ 5.35 µM)
MIC (Mycobacterium avium [1]; MH Culture Medium, clinically isolated strain Avium (S577)): 0.25 µg/mL (≈ 0.334 µM)
MIC (Mycobacterium avium [1]; MH Culture Medium, clinically isolated strain Avium (S597)): 1 µg/mL (≈ 1.34 µM)
MIC (Mycobacterium avium [1]; MH Culture Medium, clinically isolated strain Avium (S602)): 1 µg/mL (≈ 1.34 µM)
MIC (Mycobacterium abscessus [2]; 7H9 Broth): 16 µg/mL (≈ 21.4 µM)
MIC (Mycobacterium abscessus [2]; MH Broth): 64 µg/mL (≈ 85.6 µM)
MIC (Mycobacterium kansasii [3]; 7H9 Broth): 2 µg/mL (≈ 2.67 µM)
MIC (Mycobacterium kansasii [3]; MH Broth): 2 µg/mL (≈ 2.67 µM)
MIC (Mycobacterium kansasii [3]; MH Culture Medium, Kansasii (standard strain)): 0.0625 µg/mL (≈ 0.0836 µM)
MIC (Mycobacterium kansasii [3]; MH Culture Medium, clinically isolated strain Kansasii (S9)): 0.125 µg/mL (≈ 0.167 µM)
MIC (Mycobacterium kansasii [3]; MH Culture Medium, clinically isolated strain Kansasii (S199)): 0.0625 µg/mL (≈ 0.0836 µM)
MIC (Mycobacterium kansasii [3]; MH Culture Medium, clinically isolated strain Kansasii (S520)): 0.0625 µg/mL (≈ 0.0836 µM)
MIC (Mycobacterium kansasii [3]; MH Culture Medium, clinically isolated strain Kansasii (S609)): 0.125 µg/mL (≈ 0.167 µM)
MIC ([7]; Intracellulare (standard strain)): 0.0625 µg/mL (≈ 0.0836 µM)
MIC ([7]; clinically isolated strain Intracellulare (S90)): 1 µg/mL (≈ 1.34 µM)
MIC ([7]; clinically isolated strain Intracellulare (S261)): 1 µg/mL (≈ 1.34 µM)
MIC ([7]; clinically isolated strain Intracellulare (S269)): 1 µg/mL (≈ 1.34 µM)
MIC ([7]; clinically isolated strain Intracellulare (S290)): 1 µg/mL (≈ 1.34 µM)
MIC ([7]; clinically isolated strain Intracellulare (S291)): 1 µg/mL (≈ 1.34 µM)
MIC ([7]; clinically isolated strain Intracellulare (S298)): 2 µg/mL (≈ 2.67 µM)
MIC ([7]; clinically isolated strain Intracellulare (S442)): 2 µg/mL (≈ 2.67 µM)
MIC ([7]; clinically isolated strain Intracellulare (S541)): 64 µg/mL (≈ 85.6 µM)
MIC ([7]; clinically isolated strain Intracellulare (S623)): 4 µg/mL (≈ 5.35 µM)
MIC ([7]; clinically isolated strain Intracellulare (ZPS)): 1 µg/mL (≈ 1.34 µM)
MIC ([8]; clinically isolated strain Massiliense (D10)): 0.25 µg/mL (≈ 0.334 µM)
MIC ([8]; clinically isolated strain Massiliense (D14)): 0.0625 µg/mL (≈ 0.0836 µM)
MIC ([8]; clinically isolated strain Massiliense (D18)): 0.0625 µg/mL (≈ 0.0836 µM)
MIC (Mycobacterium fortuitum; Fortuitum (standard strain)): 32 µg/mL (≈ 42.8 µM)
MIC (Mycobacterium fortuitum; clinically isolated strain Fortuitum (S103)): > 64 µg/mL
MIC (Mycobacterium fortuitum; clinically isolated strain Fortuitum (S111)): 2 µg/mL (≈ 2.67 µM)
MIC (Mycodacterium chelonei): 0.5 µg/mL (≈ 0.668 µM)
SMILES: CC[C@H]1OC(=O)[C@H](C)[C@@H](O[C@H]2C[C@@](C)(OC)[C@@H](O)[C@H](C)O2)[C@H](C)[C@@H](O[C@@H]2O[C@H](C)C[C@H](N(C)C)[C@H]2O)[C@](C)(OC)C[C@@H](C)C(=O)[C@H](C)[C@@H](O)[C@]1(C)O [Clarithromycin]
MBC (Mycobacterium avium [4]; [9]): > 64 µg/mL
MBC (Mycobacterium avium [4]; [10]): > 64 µg/mL
MBC (Mycobacterium avium [4]; [11]): > 64 µg/mL
MBC (Mycobacterium avium [4]; [12]): > 64 µg/mL
MBC (Mycobacterium abscessus [5]; 7H9 Broth): > 64 µg/mL
MBC (Mycobacterium abscessus [5]; MH Broth): > 64 µg/mL
MBC (Mycobacterium kansasii [6]; 7H9 Broth): 64 µg/mL (≈ 85.6 µM)
MBC (Mycobacterium kansasii [6]; MH Broth): > 64 µg/mL
